Literature values in patent publication US10172912B2, “Chemical induction of lactation in prepubescent non-human mammals” (priority 2009, dated 2019).

Assays:
gravid horses = conditions: for udder development: gravid equine mares with endophyte-infected ryegrass toxicity, thirty days before foaling
non-pregnant mares = conditions: altrenogest/estradiol pessary week 1, estradiol pessary week 2 with twice daily drug

Row | bound to plasma proteins (plasma proteins) | Compound | udder development (gravid horses) | lactation (gravid horses; gravid horses with endophyte-infected ryegrass toxicity, administration for at least eighteen days) | induced lactation volume (non-pregnant mares)
1 | 91-93% | O=c1[nH]c2ccccc2n1CCCN1CCC(n2c(=O)[nH]c3cc(Cl)ccc32)CC1 [Domperidone] | increases udder development | increase lactation | 
2 |  | CCN1CCCC1CNC(=O)c1cc(S(N)(=O)=O)ccc1OC (centres unmarked) [sulpiride] | increases udder development |  | ~1 liter per mare/day
